This is an account of results in US4423063A, “2,4-Dioxo-4-substituted-1-butaoic acid derivatives useful in treating urinary track calcium oxalate lithiasis” (Merck & Co., Inc., priority 1982, dated 1983).

In the test the target is T1, pig liver glycolate oxidase (Sus scrofa, UniProt I3LVF1).
T1 construct: The enzyme was pig liver glycolate oxidase; from tissue; host or cells: pig liver
T1 sequence (I3LVF1 1-370): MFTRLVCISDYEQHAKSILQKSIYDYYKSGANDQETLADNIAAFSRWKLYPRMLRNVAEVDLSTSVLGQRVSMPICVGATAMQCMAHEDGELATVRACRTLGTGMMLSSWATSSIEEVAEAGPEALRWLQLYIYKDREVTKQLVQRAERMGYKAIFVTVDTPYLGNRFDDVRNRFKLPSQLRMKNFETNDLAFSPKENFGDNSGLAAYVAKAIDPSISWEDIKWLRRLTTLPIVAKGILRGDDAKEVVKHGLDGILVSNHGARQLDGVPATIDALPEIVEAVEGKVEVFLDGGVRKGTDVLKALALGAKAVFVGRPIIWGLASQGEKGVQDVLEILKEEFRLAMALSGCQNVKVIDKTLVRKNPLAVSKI
The test is described as follows: Glycolate oxidase enzyme inhibition. Format: biochemical. To be noted: 25° C., 0.10 M phosphate buffer pH 7.0, 3 mM EDTA, 2×10^-4 M sodium glycolate. Here is the method:
The usefulness of the compounds of the present invention in treating urinary tract, especially renal, calcium oxalate lithiasis, is shown by the ability of those compounds to inhibit the glycolate oxidase enzyme. […] The activity of the enzyme, in turn, was measured by following the rate of reduction of sodium 2,6-dichlorophenol-indophenol by sodium glycolate in the presence of the enzyme. The enzyme was pig liver glycolate oxidase. The reaction was followed spectrophotometrically at 600 nm. The assay was conducted at 25° C. in a 0.10 M phosphate buffer, pH 7.0, containing 3 mM EDTA. Initial substrate concentrations were 5×10^-5 M of sodium 2,6-dichlorophenol-indophenol and 2×10^-4 M of sodium glycolate. Reactions were initiated by the addition of enzyme. Initial rates during the period from 1 to 3 min. after the addition of enzyme were recorded on a Beckman Acta M-VI spectrophotometer. One control was run simultaneously with three test reactions and all initial rates were adjusted to a common control rate. For further details of this procedure, see Randall et al., J. Med. Chem., 22, 6, 612 (1979).

On to `O=C(O)C(=O)CC(=O)c1ccc(-c2ccc(SCCc3ccncc3)cc2)cc1` [4-[[4'-[2-(4-Pyridinylethyl)thio]-1,1'-biphenyl]-4-yl]-2,4-dioxo-1-butanoic acid], for which the IC50 came to 90 nM. On to `O=C(O)C(=O)CC(=O)c1ccc(-c2ccc(SCc3ccccc3)cc2)cc1` [4-[[4'-[(Phenylmethyl)thio]-1,1'-biphenyl]-4-yl]-2,4-dioxo-1-butanoic acid], for which 420 nM corresponded to half-maximal inhibition (IC50).

Compound `O=C(O)C(=O)CC(=O)c1ccc(-c2ccc(SCC3(O)COc4ccccc4OC3)cc2)cc1` [4-[[4'-[(3,4-dihydro-3-hydroxy-2H-1,5-benzodioxepin-3-yl)methylthio]-1,1'-biphenyl]-4-yl]-2,4-dioxo-1-butanoic acid] registered an IC50 of 62 nM. For `CSc1ccc(-c2ccc(C(=O)CC(=O)C(=O)O)cc2)cc1` [4-[(4'-Methylthio-1,1'-biphenyl)-4-yl]-2,4-dioxo-1-butanoic acid], the IC50 (unit inferred) came out at 150 nM. For the compound `O=C(O)C(=O)CC(=O)c1ccc(-c2ccc(S)cc2)cc1` [4-[(4'-Mercapto-1,1'-biphenyl)-4-yl]-2,4-dioxo-1-butanoic acid], the IC50 was 2100 nM.
